Source: US12617783B2, “Heterocyclic GLP-1R agonists” (BIOMEA FUSION, INC., priority 2024, dated 2026)

These molecules were tested against T1, human GLP-1R (Homo sapiens, UniProt P43220) (assay: GLP-1R cAMP assay (Example B1a, HTRF, 30 min at room temperature)). Conditions: Table 1d, stereoisomer pairs; read-out: EC50.
T1 construct: host or cells: HEK293
Assay type: cell-based
Method in brief: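 Competitive HTRF read-out of cAMP after 30 min room-temperature stimulation, BETP absent, of human GLP-1R-HEK293 cells (1,000/well) in HEPES buffer with 500 μM IBMX and 0.1% BSA. Activation normalised to GLP-1(7-37) positive control. EC50 from 4-parameter non-linear regression.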

T1 sequence (P43220 24-463): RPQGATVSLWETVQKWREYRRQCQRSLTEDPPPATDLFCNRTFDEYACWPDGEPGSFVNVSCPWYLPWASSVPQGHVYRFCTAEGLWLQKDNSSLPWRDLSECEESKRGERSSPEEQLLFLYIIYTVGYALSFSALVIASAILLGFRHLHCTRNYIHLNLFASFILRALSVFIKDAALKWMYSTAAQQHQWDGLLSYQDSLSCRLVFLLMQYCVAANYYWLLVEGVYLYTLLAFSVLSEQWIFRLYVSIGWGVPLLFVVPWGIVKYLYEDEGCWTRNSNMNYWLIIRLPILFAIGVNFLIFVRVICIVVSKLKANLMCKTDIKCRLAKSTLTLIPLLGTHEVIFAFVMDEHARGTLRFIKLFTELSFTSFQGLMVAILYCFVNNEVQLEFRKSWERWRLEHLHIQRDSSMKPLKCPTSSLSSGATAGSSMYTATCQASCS

| SMILES | EC50 |
| --- | --- |
| Cc1cc(-n2nc3c(c2-n2ccn(-c4ccc5c(cnn5C)c4F)c2=O)[C@H]2CC[C@@H](C3)N2C(=O)c2cc3cc([C@H]4CCOC5(CC5)C4)ccc3n2[C@@]2(c3noc(=O)[nH]3)C[C@@H]2C)cc(C)c1F [Compound 411, 3-((1S,2S)-1-(2-((4R,7S)-3-(3-(4-fluoro-1-methyl-1H-indazol-5-yl)-2-oxo-2,3-dihydro-1H-imidazol-1-yl)-2-(4-fluoro-3,5-dimethylphenyl)-2,4,5,6,7,8-hexahydro-4,7-epiminocyclohepta [c]pyrazole-9-carbonyl)-5-((S)-4-oxaspiro[2.5]octan-7-yl)-1H-indol-1-yl)-2-methylcyclopropyl)-1,2,4-oxadiazol-5 (4H)-one] | 652 nM |

Same assay, conditions: cAMP accumulation in HEK293 expressing human GLP-1R, no BETP, 30 min room temperature (Method B1a, compounds ID 1-609), Table 1; read-out: EC50

| SMILES | EC50 |
| --- | --- |
| Cc1cc(-n2nc3c(c2-n2ccn(-c4ccc5c(cnn5C)c4F)c2=O)[C@@H]2CC[C@H](C3)N2C(=O)c2cc3sc([C@H]4CCOC(C)(C)C4)nc3n2[C@@]2(c3noc(=O)[nH]3)C[C@@H]2C)cc(C)c1F [Compound 306, 3-[(1S,2S)-1-[2-[(4S)-2,2-dimethyltetrahydropyran-4-yl]-5-[(1S,8R)-4-(4-fluoro-3,5-dimethyl-phenyl)-3-[3-(4-fluoro-1-methyl-indazol-5-yl)-2-oxo-imidazol-1-yl]-4,5,11-triazatricyclo[6.2.1.02,6]undeca-2,5-diene-11-carbonyl]pyrrolo[2,3-d]thiazol-4-yl]-2-methyl-cyclopropyl]-4H-1,2,4-oxadiazol-5-one] | 2450 nM |
| Cc1cc(-n2nc3c(c2-n2ccn(-c4ccc(C(=O)N(C)C5CC5)c(F)c4F)c2=O)[C@@H]2CCC[C@H](C3)N2C(=O)c2cc3cc([C@H]4CCOC(C)(C)C4)ccc3n2[C@@]2(c3noc(=O)[nH]3)C[C@@H]2C)cc(C)c1F [Compound 547, N-cyclopropyl-4-[3-[(1S,8R)-12-[5-[(4S)-2,2-dimethyltetrahydropyran-4-yl]-1-[(1S,2S)-2-methyl-1-(5-oxo-4H-1,2,4-oxadiazol-3-yl)cyclopropyl]indole-2-carbonyl]-4-(4-fluoro-3,5-dimethyl-phenyl)-4,5,12-triazatricyclo[6.3.1.02,6]dodeca-2,5-dien-3-yl]-2-oxo-imidazol-1-yl]-2,3-difluoro-N-methyl-benzamide] | ≥ 10000 nM |
| CC(=O)NC[C@]1(n2c(C(=O)N3[C@@H]4CC[C@H]3c3c(nn(-c5cc(C)c(F)c(C)c5)c3-n3ccn(-c5ccc6c(cnn6C)c5F)c3=O)C4)cc3cc([C@H]4CCOC(C)(C)C4)ccc32)C[C@@H]1C [Compound 243, N-[[(1S,2S)-1-[5-[(4S)-2,2-dimethyltetrahydropyran-4-yl]-2-[(1S,8R)-4-(4-fluoro-3,5-dimethyl-phenyl)-3-[3-(4-fluoro-1-methyl-indazol-5-yl)-2-oxo-imidazol-1-yl]-4,5,11-triazatricyclo[6.2.1.02,6]undeca-2,5-diene-11-carbonyl]indol-1-yl]-2-methyl-cyclopropyl]methyl]acetamide] | 757 nM |
| Cc1cc(-n2nc3c(c2-n2ccn(-c4ccc5cnncc5c4F)c2=O)[C@@H]2CC[C@H](C3)N2C(=O)c2cc3cc([C@H]4CCOC(C)(C)C4)ccc3n2[C@@]2(c3noc(=O)[nH]3)C[C@@H]2C)cc(C)c1F [Compound 410, 3-((1S,2S)-1-(5-((S)-2,2-dimethyltetrahydro-2H-pyran-4-yl)-2-((4S,7R)-2-(4-fluoro-3,5-dimethylphenyl)-3-(3-(5-fluorophthalazin-6-yl)-2-oxo-2,3-dihydro-1H-imidazol-1-yl)-2,4,5,6,7,8-hexahydro-4,7-epiminocyclohepta [c]pyrazole-9-carbonyl)-1H-indol-1-yl)-2-methylcyclopropyl)-1,2,4-oxadiazol-5 (4H)-one] | 14.7 nM |
| Cc1cc(-n2nc3c(c2-c2ncn(-c4ccc5c(cnn5C)c4F)c2C)[C@H](C)N(C(=O)c2cc4cc(N5CCS(=O)(=O)CC5)ccc4n2C2(c4noc(=O)[nH]4)CC2)CC3)cc(C)c1F [Compound 108, 3-[1-[5-(1,1-dioxo-1,4-thiazinan-4-yl)-2-[(4S)-2-(4-fluoro-3,5-dimethyl-phenyl)-3-[1-(4-fluoro-1-methyl-indazol-5-yl)-5-methyl-imidazol-4-yl]-4-methyl-6,7-dihydro-4H-pyrazolo[4,3-c]pyridine-5-carbonyl]indol-1-yl]cyclopropyl]-4H-1,2,4-oxadiazol-5-one] | > 10000 nM |
| Cc1cc(-n2nc3c(c2-n2ccn(-c4ccc5c(cnn5C)c4F)c2=O)[C@H]2CC[C@@H](C3)N2C(=O)c2cc3cc([C@H]4CCOC5(CC5)C4)ccc3n2[C@@]2(c3noc(=O)[nH]3)C[C@@H]2C)cc(C)c1F [Compound 411, 3-((1S,2S)-1-(2-((4R,7S)-3-(3-(4-fluoro-1-methyl-1H-indazol-5-yl)-2-oxo-2,3-dihydro-1H-imidazol-1-yl)-2-(4-fluoro-3,5-dimethylphenyl)-2,4,5,6,7,8-hexahydro-4,7-epiminocyclohepta [c]pyrazole-9-carbonyl)-5-((S)-4-oxaspiro[2.5]octan-7-yl)-1H-indol-1-yl)-2-methylcyclopropyl)-1,2,4-oxadiazol-5 (4H)-one] | 652 nM |
| Cc1cc(-n2nc3c(c2-n2ccn(-c4ccc5c(cnn5C)c4F)c2=O)[C@@H]2CC[C@H](CC3)N2C(=O)c2cc3cc([C@H]4CCOC(C)(C)C4)ccc3n2[C@@]2(c3noc(=O)[nH]3)C[C@@H]2C)cc(C)c1F [Compound 523, 3-[(1S,2S)-1-[5-[(4S)-2,2-dimethyltetrahydropyran-4-yl]-2-[(1S,9R)-4-(4-fluoro-3,5-dimethyl-phenyl)-3-[3-(4-fluoro-1-methyl-indazol-5-yl)-2-oxo-imidazol-1-yl]-4,5,12-triazatricyclo[7.2.1.02,6]dodeca-2,5-diene-12-carbonyl]indol-1-yl]-2-methyl-cyclopropyl]-4H-1,2,4-oxadiazol-5-one] | 617 nM |
| Cc1cc(-n2nc3c(c2-n2ccn(-c4ccc5c(cnn5C)c4F)c2=O)[C@@H]2CCC[C@H](C3)N2S(=O)(=O)c2cc3cc(N4CCOC5(CC5)C4)ccc3n2[C@]2(c3noc(=O)[nH]3)C[C@@H]2C)cc(C)c1F [Compound 538, 3-[(1R,2S)-1-[2-[[(1S,8R)-4-(4-fluoro-3,5-dimethyl-phenyl)-3-[3-(4-fluoro-1-methyl-indazol-5-yl)-2-oxo-imidazol-1-yl]-4,5,12-triazatricyclo[6.3.1.02,6]dodeca-2,5-dien-12-yl]sulfonyl]-5-(4-oxa-7-azaspiro[2.5]octan-7-yl)indol-1-yl]-2-methyl-cyclopropyl]-4H-1,2,4-oxadiazol-5-one] | ≥ 10000 nM |
| Cc1cc(-n2nc3c(c2-n2ccn(-c4ccc5c(cnn5C)c4Cl)c2=O)[C@@H]2CC[C@H](C3)N2C(=O)c2cc3cc([C@H]4CCOC(C)(C)C4)ccc3n2[C@@]2(c3noc(=O)[nH]3)C[C@@H]2C)cc(C)c1F [Compound 308, 3-((1S,2S)-1-(2-((4S,7R)-3-(3-(4-chloro-1-methyl-1H-indazol-5-yl)-2-oxo-2,3-dihydro-1H-imidazol-1-yl)-2-(4-fluoro-3,5-dimethylphenyl)-2,4,5,6,7,8-hexahydro-4,7-epiminocyclohepta [c]pyrazole-9-carbonyl)-5-((S)-2,2-dimethyltetrahydro-2H-pyran-4-yl)-1H-indol-1-yl)-2-methylcyclopropyl)-1,2,4-oxadiazol-5(4H)-one] | 197 nM |
| Cc1cc(-n2nc3c(c2-n2ccn(-c4ccc5c(cnn5C)c4F)c2=O)[C@@H]2CC[C@H](C3)N2C(=O)c2cc3cc([C@H]4CCOC(C)(C)C4)ncc3n2[C@@]2(c3noc(=O)[nH]3)C[C@@H]2C)cc(C)c1F [Compound 211, 3-((1S,2S)-1-(5-((S)-2,2-dimethyltetrahydro-2H-pyran-4-yl)-2-((4S,7R)-3-(3-(4-fluoro-1-methyl-1H-indazol-5-yl)-2-oxo-2,3-dihydro-1H-imidazol-1-yl)-2-(4-fluoro-3,5-dimethylphenyl)-2,4,5,6,7,8-hexahydro-4,7-epiminocyclohepta [c]pyrazole-9-carbonyl)-1H-pyrrolo[2,3-c]pyridin-1-yl)-2-methylcyclopropyl)-1,2,4-oxadiazol-5 (4H)-one] | 51 nM |
| Cc1cc(-n2nc3c(c2-n2ccn(-c4ccc5nn(C(F)F)cc5c4F)c2=O)[C@@H]2CC[C@H](C3)N2C(=O)c2cc3cc([C@H]4CCOC(C)(C)C4)ccc3n2[C@@]2(c3noc(=O)[nH]3)C[C@@H]2C)cc(C)c1F [Compound 309, 3-((1S,2S)-1-(2-((4S,7R)-3-(3-(2-(difluoromethyl)-4-fluoro-2H-indazol-5-yl)-2-oxo-2,3-dihydro-1H-imidazol-1-yl)-2-(4-fluoro-3,5-dimethylphenyl)-2,4,5,6,7,8-hexahydro-4,7-epiminocyclohepta [c]pyrazole-9-carbonyl)-5-((S)-2,2-dimethyltetrahydro-2H-pyran-4-yl)-1H-indol-1-yl)-2-methylcyclopropyl)-1,2,4-oxadiazol-5 (4H)-one] | 721 nM |
| Cc1cc(-n2nc3c(c2-n2ccn(-c4ccc5c(cnn5C)c4F)c2=O)[C@@H]2CC[C@H](C3)N2C(=O)c2cc3nc([C@@H]4CCOC(C)(C)C4)ccc3n2[C@@]2(c3noc(=O)[nH]3)C[C@@H]2C)cc(C)c1F [Compound 218, 3-[(1S,2S)-1-[5-[(4R)-2,2-dimethyltetrahydropyran-4-yl]-2-[(1S,8R)-4-(4-fluoro-3,5-dimethyl-phenyl)-3-[3-(4-fluoro-1-methyl-indazol-5-yl)-2-oxo-imidazol-1-yl]-4,5,11-triazatricyclo[6.2.1.02,6]undeca-2,5-diene-11-carbonyl]pyrrolo[3,2-b]pyridin-1-yl]-2-methyl-cyclopropyl]-4H-1,2,4-oxadiazol-5-one] | > 10000 nM |
| Cc1cc(-n2nc3c(c2-n2ccn(-c4ccc5c(cnn5C)c4F)c2=O)[C@@H]2CC[C@H](C3)N2C(=O)c2cc3nc([C@H]4CCOC(C)(C)C4)sc3n2[C@@]2(c3noc(=O)[nH]3)C[C@@H]2C)cc(C)c1F [Compound 206, 3-[(1S,2S)-1-[2-[(4S)-2,2-dimethyltetrahydropyran-4-yl]-5-[(1S,8R)-4-(4-fluoro-3,5-dimethyl-phenyl)-3-[3-(4-fluoro-1-methyl-indazol-5-yl)-2-oxo-imidazol-1-yl]-4,5,11-triazatricyclo[6.2.1.02,6]undeca-2,5-diene-11-carbonyl]pyrrolo[3,2-d]thiazol-4-yl]-2-methyl-cyclopropyl]-4H-1,2,4-oxadiazol-5-one] | 1440 nM |

Same assay, conditions: text to Table 1d, bridge atoms configured out of the plane or toward the reader

| SMILES | potency |
| --- | --- |
| Cc1cc(-n2nc3c(c2-n2ccn(-c4ccc5c(cnn5C)c4F)c2=O)[C@H]2CC[C@@H](C3)N2C(=O)c2cc3cc([C@H]4CCOC5(CC5)C4)ccc3n2[C@@]2(c3noc(=O)[nH]3)C[C@@H]2C)cc(C)c1F [Compound 411, 3-((1S,2S)-1-(2-((4R,7S)-3-(3-(4-fluoro-1-methyl-1H-indazol-5-yl)-2-oxo-2,3-dihydro-1H-imidazol-1-yl)-2-(4-fluoro-3,5-dimethylphenyl)-2,4,5,6,7,8-hexahydro-4,7-epiminocyclohepta [c]pyrazole-9-carbonyl)-5-((S)-4-oxaspiro[2.5]octan-7-yl)-1H-indol-1-yl)-2-methylcyclopropyl)-1,2,4-oxadiazol-5 (4H)-one] | little or no potency |
